Laboratory results reported in patent publication US4663323A, “Tetrazole derivatives, anti-ulcer composition containing the same and method for treating ulcers” (Otsuka Pharmaceutical Co., Ltd., priority 1984, dated 1987).
Where two headings read alike, the source gives them in different places.

Experiments:
Format in all cases: in vivo, male Wistar rats
[1] = test system: Indomethacin-Induced Ulcer; assay: Indomethacin-Induced Ulcer; conditions: oral, 3×10^-4 mole in 0.5% CMC, 30 min before indomethacin 20 mg/kg s.c.
Procedure: After male Wistar rats weighing about 160 g was fasted for 24 hours, indomethacin was subcutaneously administered to the rats in a dose of 20 mg/kg in the form of a suspension in a mixture of 0.5% CMC and a small amount of Tween 80 (i.e. polyoxyethylene sorbitan monooleate). After 5 hours, the rats were killed and the stomach was isolated. Into the isolated stomach 10% formalin (8 ml) was poured and settled. The stomach was cut open at the greater curvature, and the length of each ulcer on the membrane was measured, based on which results the inhibitory ratio of the indomethacin-induced ulcer of the test compounds was calculated in the same manner as in Pharmacological Test 2. The test compound was orally administered to the rats in a concentration of 3×10^-4 mole in the form of 0.5% CMC suspension 30 minutes before the administration of indomethacin.
(§1) In the table, the inhibitory ratio (%) was evaluated as follows: […]

Stress Ulcer = assay: Stress Ulcer; conditions: oral, 1×10^-3 mole in 0.5% CMC, before restraint and water dipping at 23° C. for 7 hours
Procedure: After male Wistar rats weighing about 170 g was fasted for 24 hours, the rats were restrained in a stress cage and dipped in water bath at 23° C. till chest of the animals. After 7 hours, the rats were killed and the stomach was isolated. Into the isolated stomach 10% formalin (8 ml) was poured and settled. The stomach was cut open at the greater curvature, and the length of each ulcer on the membrane was measured. Sum of the length of all ulcers was shown as ulcer index (UI). The test compound was orally administered to the rats before restraint in a stress cage in the form of 0.5% CMC suspension in a concentration of 1×10^-3 mole. As a control, only the solvent (CMC solution) was administered likewise.
The inhibitory ratio (%) of stress ulcer of the test compounds was calculated by the following equation: [formula]
as §1

gastric juice secretion = assay: Shay rat pylorus ligation method (gastric juice secretion-inhibiting activity); conditions: sc, 4 h, 100 mg/kg s.c., 30 min before pylorus ligation, measured 4 hours after ligation
Procedure: The pharmacological activities of the compouns (I) were tested by a Shay rat pylorus ligation method (cf. H. Shay et al: Gastroenterol., Vol. 5, page 43, 1945) which is the most popular method for testing of gastric juice secretion-inhibiting activity. The test was carried out by using male Wistar rats, weighing about 170 g and fasting for 24 hours.
Test compounds were administered 30 minutes before the pylorus ligation in a dose of 100 mg/kg in subcutaneous route, and the volume, total acidity and/or pepsin activity of the gastric juice were measured 4 hours after the ligation. As a control, a saline solution was administered instead of the test compound. The inhibitory ratio (%) of the test compounds were calculated when the inhibitory activities of the control were counted as zero (0).
as §1

[2] = saline control = 0, read-out: Inhibitory ratio, Volume of gastric juice

| SMILES | Inhibitory ratio of indomethacin-induced ulcer [1] | Inhibitory ratio of stress ulcer (Stress Ulcer) | inhibition in vivo at 100 mg/kg (gastric juice secretion; [2]) | inhibition in vivo at 100 mg/kg (gastric juice secretion; saline control = 0, read-out: Inhibitory ratio, Pepsin activity) | inhibition in vivo at 100 mg/kg (gastric juice secretion; saline control = 0, read-out: Inhibitory ratio, Total acidity) |
| --- | --- | --- | --- | --- | --- |
| COc1ccc(NC(=O)CCCCc2nnnn2-c2ccccc2)cc1 [Compound 49, N-(4-Methoxyphenyl)-5-(1-phenyl-1,2,3,4-tetrazol-5-yl)valeramide] | + (30 to less than 60%) | + (30 to less than 60%) |  |  |  |
| CN(Cc1cccs1)C(=O)CCCSc1nnnn1C [Compound 39, N-Methyl-N-(2-thienylmethyl)-4-(1-methyl-1,2,3,4-tetrazol-5-yl)thio-butyramide] | + (30 to less than 60%) |  | > 50% |  |  |
| CCCCNC(=O)CCCCc1nnnn1-c1ccccc1 [Compound 47, N-(n-Butyl)-5-(1-phenyl-1,2,3,4-tetrazol-5-yl)valeramide] | + (30 to less than 60%) | + (30 to less than 60%) |  |  |  |
| CCN(C(=O)CCCc1nnnn1-c1ccccc1)C1CCCCC1 [Compound 46, N-Ethyl-N-cyclohexyl-4-(1-phenyl-1,2,3,4-tetrazol-5-yl)butyramide] | ++ (more than 60%) | ++ (more than 60%) | 10 to 50% | < 10% | 10 to 50% |
